For the assay, the target named is T1, aromatase (Homo sapiens, UniProt P11511).
T1 construct: This supernatant was subjected to an ultracentrifugation stage for 90 minutes at 105,000 g to obtain the microsomal deposit; from tissue; host or cells: human placenta, microsomes
T1 sequence (P11511 1-503): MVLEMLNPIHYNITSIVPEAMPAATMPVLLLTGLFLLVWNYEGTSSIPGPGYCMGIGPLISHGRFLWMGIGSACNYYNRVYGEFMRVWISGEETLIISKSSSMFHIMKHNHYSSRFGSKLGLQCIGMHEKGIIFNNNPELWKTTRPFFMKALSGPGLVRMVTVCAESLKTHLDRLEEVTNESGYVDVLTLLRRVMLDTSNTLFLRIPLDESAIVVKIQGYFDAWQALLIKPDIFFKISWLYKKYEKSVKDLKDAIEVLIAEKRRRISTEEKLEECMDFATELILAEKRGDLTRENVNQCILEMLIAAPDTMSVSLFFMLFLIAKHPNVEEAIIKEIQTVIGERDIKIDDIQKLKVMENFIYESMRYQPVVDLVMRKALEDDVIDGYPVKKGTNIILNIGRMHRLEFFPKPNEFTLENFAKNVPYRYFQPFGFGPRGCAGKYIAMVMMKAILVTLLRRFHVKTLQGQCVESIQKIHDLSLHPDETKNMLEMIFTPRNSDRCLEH
The assay can be described thus: Inhibition of aromatase in placental microsomes (measurement of the CI50). It is filed as biochemical. The following applies: human placental microsomes (25 microgramms of proteins per test); 60 nM Androstenedione with 1β-2β-(H^3)-Androstenedione; NADPH; pH=7.2; 37° C., 10 minutes; tritiated water release; read-out: CI50 (concentration of the inhibitor necessary to reduce the enzymatic activity by 50%). The procedure: Inhibition dependent on the concentration (measurement of the CI50 =concentration of the inhibitor necessary to reduce the enzymatic activity by 50%).
Human placentas were used which were washed one hour at most after delivery, then perfused with physiological serum (5 liters) via the umbilical vein, then deep-frozen at -40° C.
1) Obtaining the placental microsomes
The placentas were thawed out at 4° C., then homogenized (1:3) in a 10 mM phosphate buffer, pH=7.0 containing 100 milimoles of potassium chloride (KCl), 10 millimoles of dithiothreitol (DTT), 10 millimoles of ethylenediaminetetra-acetic acid (EDTA), 40 millimoles of nicotinamide and 250 millimoles of sucrose. The homogenates were then subjected to different phases of centrifugation until a "9000 g" supernatant was obtained (corresponding to cytosol and to endosplasmic reticulum). […] The protein concentration of the microsomal suspension was determined by the BRADFORD method [BRADFORD, Anal. Biochem., Voml. […]
Then the enzymatic reaction was very rapidly initiated by the addition of 10 microliters of reduced nicotinamide adenine dinucleotide phosphate (NADPH) solubilized in water. […] After centrifugation, and for each tube, 100 microliters of supernatant was removed and counted in the presence of a scintillating liquid. […]

On to `CC12CC=C3C(CCC4=CC(=O)CCC43CC=O)C1CCC2=O` (stereo not shown) [Example 3, ^4,9(11) -androstadiene-3,17-dione-19-carboxaldehyde], for which the IC50 was 85 nM.
